Measurements reported in the CheMixHub viscosity set.
Several values for one entry are separate records, joined by “and”; a condition that tells them apart may be missing. Equal entries are not always repeated.

Assay: xn = mol fraction of the nth substance listed

Nc1ccccc1Cl + COc1ccccc1
viscosity [mPa·s], 101 kPa
Settings	x2 = 0.1009	x2 = 0.1969	x2 = 0.2948	x2 = 0.3986	x2 = 0.4961	x2 = 0.5977	x2 = 0.6935	x2 = 0.7952	x2 = 0.9001
298.15 K	2.72	2.454	2.19	1.958	1.746	1.566	1.404	1.27	1.124
303.15 K	2.42	2.196	1.969	1.762	1.583	1.427	1.285	1.156	1.044
308.15 K	2.162	1.971	1.772	1.595	1.438	1.302	1.176	1.064	0.9578
313.15 K	1.939	1.773	1.6	1.446	1.309	1.189	1.08	0.9804	0.8856

Cc1ccc(O)cc1 + CS(C)=O
viscosity [mPa·s], 101 kPa
Settings	x1 = 0.0702	x1 = 0.1453	x1 = 0.2257	x1 = 0.3119	x1 = 0.4047	x1 = 0.505	x1 = 0.5778	x1 = 0.7312	x1 = 0.8595
303.15 K	2.036	2.307	2.913	3.456	4.277	5.056	6.524	7.908	9.499
308.15 K	1.792	2.04	2.565	3.062	3.709	4.324	5.403	6.543	7.655
313.15 K	1.604	1.833	2.293	2.698	3.24	3.769	4.649	5.745	6.083
318.15 K	1.476	1.668	2.054	2.417	2.857	3.328	4.01	4.945	5.111

Cc1cccc(C)c1 + CS(C)=O
viscosity [mPa·s], 101.3 kPa
Settings	x2 = 0.1004	x2 = 0.2027	x2 = 0.3047	x2 = 0.4044	x2 = 0.5057	x2 = 0.6045	x2 = 0.705	x2 = 0.803	x2 = 0.9011
298.15 K	0.631	0.7	0.782	0.877	0.99	1.116	1.269	1.45	1.68
303.15 K	0.593	0.657	0.73	0.815	0.914	1.026	1.168	1.325	1.528
308.15 K	0.561	0.617	0.684	0.76	0.85	0.952	1.076	1.219	1.397

Cc1ccc(O)cc1 + C[N+](C)(C)CCO.[Cl-]
Settings	viscosity
293.15 K, 101 kPa, x2 = 0.333	133.7 mPa·s
298.15 K, 101 kPa, x2 = 0.333	102 mPa·s
298.15 K, 101.33 kPa, x1 = 0.7	138.7 mPa·s
298.15 K, 101.33 kPa, x1 = 0.8	75.19 mPa·s and 55.19 mPa·s and 47.26 mPa·s
298.15 K, 101.33 kPa, x1 = 0.9	41.11 mPa·s
303.15 K, 101 kPa, x2 = 0.333	75.5 mPa·s
308.15 K, 101 kPa, x2 = 0.333	58.57 mPa·s
313.15 K, 101 kPa, x2 = 0.333	45.82 mPa·s
318.15 K, 101 kPa, x2 = 0.333	36.17 mPa·s
323.15 K, 101 kPa, x2 = 0.333	28.83 mPa·s
